Measured values: patent publication US20190365641A1, “RAPIDLY DISINTEGRATING FORMULATIONS AND METHODS OF USE” (Impax Laboratories, Inc., priority 2013, published 2019)
Converted amounts (≈) assume the structure as drawn. “And” between values parts separate entries of the source, which are not always exact repeats. Equal entries are not always repeated. Structures can show the parent of a compound that is named as a salt. Where two headings read alike, the source gives them in different places.

Experiments:
[1] = Solubility of apomorphine in phosphate buffers at varying pH (Example 14); format: physicochemical; conditions: stirred ~18 hours
Description: The testing procedure was as followings: • 1. […] The samples were stirred for ˜18 hours before analysis. • 4. […] The samples were stirred for ˜18 hours before analysis. • 5. After stirring ˜2mL of the supernatant was obtained from each vial and centrifuge at 12000 RPM to precipitate un-dissolved drug. • 6. After centrifugations, approximately 1 mL of the supernatant was diluted with approximately 50 mL of water: methanol: H3PO4 (50:50:1.2 v/v) for HPLC analysis according to the procedure described in Example 13 above.

[2] = Dissolution in simulated saliva media (Example 15); format: physicochemical; conditions: simulated saliva pH 6.2, 37° C., two samples per time point, hydrochloride
Description: The dissolution of the composition as described in Example 5 was compared to the dissolution of USP grade apomorphine hydrochloride. The following procedure was employed to obtain the dissolution profiles: • 1.
• 3. Approximately 5 mL or 10 mL of pre-warmed simulated saliva was added to the vials of step 2 according to the table above, and a stop watch was started. The vials with the media were gently swirled to allow the powder in the vials to go into solution. • 4. At specific time points, samples of the media were withdrawn from the vials of step 3 and transferred into the barrel of a 10 mL syringe with a […] filter attached to the tip of the syringe. The solution was pushed through the filter and collected for HPLC assay according to the procedure described in Example 13 above. • 5. For sample time points longer than 5 minutes the vials of step 3 were placed in a 37° C. incubator and shaken at 50 rpms until the collection time point.

[3] = subcutaneous injections, on-off fluctuations in Parkinson's disease; cited from earlier work
[4] = sublingual apomorphine tablets, prolonged use; cited from earlier work

SMILES: CN1CCc2cccc3c2[C@H]1Cc1ccc(O)c(O)c1-3 [Apomorphine Free Base, 6αβ-aporphine-10, 11 diol]
- solubility ([1]; pH 2.50 phosphate buffer, unit assumed): 9.2 mg/mL (≈ 34.4 mM)
- solubility ([1]; pH 3.00 phosphate buffer, unit assumed): 3.7 mg/mL (≈ 13.8 mM)
- solubility ([1]; pH 4.00 phosphate buffer, unit assumed): 2.7 mg/mL (≈ 10.1 mM)
- solubility ([1]; pH 5.00 phosphate buffer, unit assumed): 2.5 mg/mL (≈ 9.35 mM)
- solubility ([1]; pH 6.00 phosphate buffer, unit assumed): 2 mg/mL (≈ 7.48 mM)
- solubility ([1]; pH 6.20 phosphate buffer, unit assumed): 1.7 mg/mL (≈ 6.36 mM)
- solubility ([1]; pH 6.40 phosphate buffer, unit assumed): 1.7 mg/mL (≈ 6.36 mM)
- solubility ([1]; pH 6.60 phosphate buffer, unit assumed): 1.3 mg/mL (≈ 4.86 mM)
- solubility ([1]; pH 6.80 phosphate buffer, unit assumed): 1.2 mg/mL (≈ 4.49 mM)
- solubility ([1]; pH 7.00 phosphate buffer, unit assumed): 0.67 mg/mL (≈ 2.51 mM)
- solubility ([1]; pH 7.40 phosphate buffer, unit assumed): 0.4 mg/mL (≈ 1.5 mM)
- solubility ([1]; pH 8.00 phosphate buffer, unit assumed): 0.12 mg/mL (≈ 0.449 mM)

SMILES: CN1CCc2cccc3c2[C@H]1Cc1ccc(O)c(O)c1-3 [Apomorphine HCl, apomorphine hydrochloride]
- solubility ([1]; pH 2.50 phosphate buffer, hydrochloride, unit assumed): 22.8 mg/mL
- solubility ([1]; pH 3.00 phosphate buffer, hydrochloride, unit assumed): 21.6 mg/mL
- solubility ([1]; pH 4.00 phosphate buffer, hydrochloride, unit assumed): 20 mg/mL
- solubility ([1]; pH 5.00 phosphate buffer, hydrochloride, unit assumed): 18.8 mg/mL
- solubility ([1]; pH 6.00 phosphate buffer, hydrochloride, unit assumed): 7.4 mg/mL
- solubility ([1]; pH 6.20 phosphate buffer, hydrochloride, unit assumed): 7.2 mg/mL
- solubility ([1]; pH 6.40 phosphate buffer, hydrochloride, unit assumed): 3.7 mg/mL
- solubility ([1]; pH 8.00 phosphate buffer, hydrochloride, unit assumed): 0.27 mg/mL
- solubility ([1]; phosphate buffer, pH 6.6, aqueous buffer, thermodynamic from solid, pH 6.60 phosphate buffer, read-out: solubility): 1.9 mg/mL
- solubility ([1]; phosphate buffer, pH 6.8, aqueous buffer, thermodynamic from solid, pH 6.80 phosphate buffer, read-out: solubility): 1.4 mg/mL
- solubility ([1]; phosphate buffer, pH 7, aqueous buffer, thermodynamic from solid, pH 7.00 phosphate buffer, read-out: solubility): 1 mg/mL
- solubility ([1]; phosphate buffer, pH 7.4, aqueous buffer, thermodynamic from solid, pH 7.40 phosphate buffer, read-out: solubility): 0.61 mg/mL
- dissolution ([2]; 0.5 min): 30.52% and 27.73%
- dissolution ([2]; 1 min): 34.58% and 30.24%
- dissolution ([2]; 5 min): 57.54% and 46.57%
- dissolution ([2]; 10 min): 46.00% and 52.29%
- dissolution ([2]; 30 min): 53.23% and 74.97%
- dissolution ([2]; Initial): 22.75% and 19.05%

SMILES: CN1CCc2cccc3c2[C@H]1Cc1ccc(O)c(O)c1-3 [apomorphine, 6αβ-aporphine-10, 11 diol]
- duration of effect [3]: 45 to 90 min
- time to effect after administration [3]: 5 to 15 min
- patients with buccal mucosal ulceration (severe stomatitis) [4]: approximately 30%
